The structures appear in SMILES notation.

For one test, the target named is CDK2/CycE (Homo sapiens (Human), UniProt P24941). As to the kind of experiment: CDK2/CycE kinase assay (TR-FRET). It counts as biochemical. The note with it: 10 μM ATP; read-out: CDK2 avg (IC50 [mol/l]). From the text: CDK2/CycE-inhibitory activity of compounds of the present invention was quantified employing the CDK2/CycE TR-FRET assay as described in the following paragraphs.
Recombinant fusion proteins of GST and human CDK2 and of GST and human CycE, expressed in insect cells (Sf9) and purified by Glutathion-Sepharose affinity chromatography, were purchased from ProQinase GmbH (Freiburg, Germany). As substrate for the kinase reaction biotinylated peptide biotin-Ttds-YISPLKSPYKISEG (C-terminus in amid form) was used which can be purchased e.g. form the company JERINI peptide technologies (Berlin, Germany).
For the assay 50 nl of a 100 fold concentrated solution of the test compound in DMSO was pipetted into a black low volume 384 well microtiter plate (Greiner Bio-One, Frickenhausen, Germany), 2 μl of a solution of CDK2/CycE in aqueous assay buffer [50 mM Tris/HCl pH 8.0, 10 mM MgCl2, 1.0 mM dithiothreitol, 0.1 mM sodium ortho-vanadate, 0.01% (v/v) Nonidet-P40 (Sigma)] were added and the mixture was incubated for 15 min at 22° C. to allow pre-binding of the test compounds to the enzyme before the start of the kinase reaction. Then the kinase reaction was started by the addition of 3 μl of a solution of adenosine-tri-phosphate (ATP, 16.7 μM=>final conc. in the 5 μl assay volume is 10 μM) and substrate (1.25 μM=>final conc. in the 5 μl assay volume is 0.75 μM) in assay buffer and the resulting mixture was incubated for a reaction time of 25 min at 22° C. The concentration of CDK2/CycE was adjusted depending of the activity of the enzyme lot and was chosen appropriate to have the assay in the linear range, typical concentrations were in the range of 130 ng/ml. The reaction was stopped by the addition of 5 μl of a solution of TR-FRET detection reagents (0.2 μM streptavidine-XL665 [Cisbio Bioassays, Codolet, France] and 1 nM anti-RB(pSer807/pSer811)-antibody from BD Pharmingen [#558389] and 1.2 nM LANCE EU-W1024 labeled anti-mouse IgG antibody [Perkin-Elmer, product no. AD0077, as an alternative a Terbium-cryptate-labeled anti-mouse IgG antibody from Cisbio Bioassays can be used]) in an aqueous EDTA-solution (100 mM EDTA, 0.2% (w/v) bovine serum albumin in 100 mM HEPES/NaOH pH 7.0).
The resulting mixture was incubated 1 h at 22° C. to allow the formation of complex between the phosphorylated biotinylated peptide and the detection reagents. Subsequently the amount of phosphorylated substrate was evaluated by measurement of the resonance energy transfer from the Eu-chelate to the streptavidine-XL. Therefore, the fluorescence emissions at 620 nm and 665 nm after excitation at 350 nm was measured in a TR-FRET reader, e.g. a Rubystar (BMG Labtechnologies, Offenburg, Germany) or a Viewlux (Perkin-Elmer). The ratio of the emissions at 665 nm and at […] was taken as the measure for the amount of phosphorylated substrate. The data were normalised (enzyme reaction without inhibitor=0% inhibition, all other assay components but no enzyme=100% inhibition).

The test system of another test is HeLa. As to the kind of experiment: Proliferation assay (crystal violet), HeLa. In kind it is cell-based. The note with it: Homo sapiens, 96 h, 4 days, read-out: Inhibition of proliferation IC50 HeLa. The protocol: Cultivated tumor cells (cells were ordered from ATCC, except HeLa-MaTu and HeLa-MaTu-ADR, which were ordered from EPO-GmbH, Berlin) were plated at a density of 1000 to 5000 cells/well, depending on the growth rate of the respective cell line, in a 96-well multititer plate in 200 μL of their respective growth medium supplemented 10% fetal calf serum. After 24 hours, the cells of one plate (zero-point plate) were stained with crystal violet (see below), while the medium of the other plates was replaced by fresh culture medium (200 μl), to which the test substances were added in various concentrations (0 μM, as well as in the range of 0.001-10 μM; the final concentration of the solvent dimethyl sulfoxide was 0.5%). The cells were incubated for 4 days in the presence of test substances. Cell proliferation was determined by staining the cells with crystal violet: the cells were fixed by adding 20 μl/measuring point of an 11% glutaric aldehyde solution for 15 minutes at room temperature. After three washing cycles of the fixed cells with water, the plates were dried at room temperature. The cells were stained by adding 100 μl/measuring point of a 0.1% crystal violet solution (pH 3.0). After three washing cycles of the stained cells with water, the plates were dried at room temperature. The dye was dissolved by adding 100 μl/measuring point of a 10% acetic acid solution. Absorption was determined by photometry at a wavelength of 595 nm. The change of cell number, in percent, was calculated by normalization of the measured values to the absorption values of the zero-point plate (=0%) and the absorption of the untreated (0 μm) cells (=100%). The IC50 values were determined by means of a 4 parameter fit.

Consider `Cc1nsc(Nc2ccc(C#N)cn2)c1C(=O)Nc1ccc(F)c(F)c1` [Example 28, 5-[(5-Cyanopyridin-2-yl)amino]-N-(3,4-difluorophenyl)-3-methyl-1,2-thiazole-4-carboxamide], for which the IC50 on CDK2/CycE is more than 20 µM; in the test with HeLa, 1600 nM.

`CCOC(=O)c1cnc(Nc2snc(C)c2C(=O)Nc2ccc(OC)nc2)s1` [Example 29, Ethyl 2-({4-[(6-methoxypyridin-3-yl)carbamoyl]-3-methyl-1,2-thiazol-5-yl}amino)-1,3-thiazole-5-carboxylate]: the IC50 at CDK2/CycE was more than 20 µM; in the test on HeLa it was 2800 nM.

With `CCOC(=O)c1sc(Nc2snc(C)c2C(=O)Nc2ccc(OC)nc2)nc1C` [Example 30, Ethyl 2-({4-[(6-methoxypyridin-3-yl)carbamoyl]-3-methyl-1,2-thiazol-5-yl}amino)-4-methyl-1,3-thiazole-5-carboxylate], the results for the IC50 at CDK2/CycE and in the test on HeLa were more than 20 µM and 1600 nM, respectively.

`COC(=O)c1ccc(Nc2snc(C)c2C(=O)Nc2ccc(OC)nc2)nc1` [Example 31, Methyl 6-({4-[(6-methoxypyridin-3-yl)carbamoyl]-3-methyl-1,2-thiazol-5-yl}amino)-nicotinate]: the IC50 was more than 20 µM at CDK2/CycE and more than 10000 nM in the test on HeLa.

For `COC(=O)c1cnc(Nc2snc(C)c2C(=O)Nc2ccc(OC)nc2)cn1` [Example 32, Methyl 5-({4-[(6-methoxypyridin-3-yl)carbamoyl]-3-methyl-1,2-thiazol-5-yl}amino)-pyrazine-2-carboxylate], the IC50 on CDK2/CycE is more than 20 µM; in the test with HeLa it was 8300 nM.

As to `CCc1ccccc1NC(=O)c1c(C)nsc1Nc1cnc2cccc(C)c2n1` [Example 33, N-(2-Ethylphenyl)-3-methyl-5-[(8-methylquinoxalin-2-yl)amino]-1,2-thiazole-4-carboxamide], the values for the IC50 on CDK2/CycE and with HeLa were more than 20 µM and 2200 nM, respectively.

For `CCc1ccccc1NC(=O)c1c(C)nsc1Nc1nccnc1C#N` [Example 34, 5-[(3-Cyanopyrazin-2-yl)amino]-N-(2-ethylphenyl)-3-methyl-1,2-thiazole-4-carboxamide], the IC50 at CDK2/CycE was more than 20 µM; with HeLa, 6700 nM.

With `CCc1ccccc1NC(=O)c1c(C)nsc1Nc1nc(C)nc2ccccc12` [Example 35, N-(2-Ethylphenyl)-3-methyl-5-[(2-methylquinazolin-4-yl)amino]-1,2-thiazole-4-carboxamide], the IC50 on CDK2/CycE is more than 20 µM; with HeLa, 1200 nM.

`COc1ccc(NC(=O)c2c(C)nsc2Nc2ncccc2C#N)cn1` [Example 36, 5-[(3-Cyanopyridin-2-yl)amino]-N-(6-methoxypyridin-3-yl)-3-methyl-1,2-thiazole-4-carboxamide]: the IC50 at CDK2/CycE is more than 20 µM; in the test on HeLa, 9900 nM.

For the compound `COc1ccc(NC(=O)c2c(C)nsc2Nc2cccc(C#N)n2)cn1` [Example 37, 5-[(6-Cyanopyridin-2-yl)amino]-N-(6-methoxypyridin-3-yl)-3-methyl-1,2-thiazole-4-carboxamide], the IC50 at CDK2/CycE was more than 20 µM; with HeLa it was more than 10000 nM.

`CCc1ccccc1NC(=O)c1c(C)nsc1Nc1nc(C)nc2sccc12` [Example 38, N-(2-Ethylphenyl)-3-methyl-5-[(2-methylthieno[2,3-d]pyrimidin-4-yl)amino]-1,2-thiazole-4-carboxamide]: the IC50 on CDK2/CycE is more than 20 µM; with HeLa, 5300 nM.

Take `COc1ccc(NC(=O)c2c(C)nsc2Nc2ccc(C#N)cn2)cn1` [Example 39, 5-[(5-Cyanopyridin-2-yl)amino]-N-(6-methoxypyridin-3-yl)-3-methyl-1,2-thiazole-4-carboxamide]: the IC50 on CDK2/CycE was more than 20 µM; in the test on HeLa it was 6700 nM.

`Cc1nsc(Nc2cnc3ccccc3n2)c1C(=O)Nc1ccc(Cl)c(F)c1` [Example 40, N-(4-Chloro-3-fluorophenyl)-3-methyl-5-(quinoxalin-2-ylamino)-1,2-thiazole-4-carboxamide]: the values for the IC50 on CDK2/CycE and with HeLa were more than 20 µM and 560 nM, respectively.

On to `CCc1ccccc1NC(=O)c1c(C)nsc1Nc1cnc2ccc(Cl)cc2n1` [Example 41, 5-[(7-Chloroquinoxalin-2-yl)amino]-N-(2-ethylphenyl)-3-methyl-1,2-thiazole-4-carboxamide], for which the IC50 on CDK2/CycE is more than 20 µM; with HeLa, 1300 nM.

Regarding `COc1ccc(NC(=O)c2c(C)nsc2Nc2cnc3ccc(Cl)cc3n2)cn1` [Example 42, 5-[(7-Chloroquinoxalin-2-yl)amino]-N-(6-methoxypyridin-3-yl)-3-methyl-1,2-thiazole-4-carboxamide], the IC50 is more than 20 µM on CDK2/CycE and 1200 nM with HeLa.

In the case of `COc1ccc(NC(=O)c2c(C)nsc2Nc2cnc3c(F)c(F)ccc3n2)cn1` [Example 43, 5-[(5,6-Difluoroquinoxalin-2-yl)amino]-N-(6-methoxypyridin-3-yl)-3-methyl-1,2-thiazole-4-carboxamide], the values for the IC50 on CDK2/CycE and in the test with HeLa were more than 20 µM and 420 nM, respectively.

In the case of `COc1ccc(NC(=O)c2c(C)nsc2Nc2cnc3ccc(F)cc3n2)cn1` [Example 44, 5-[(7-Fluoroquinoxalin-2-yl)amino]-N-(6-methoxypyridin-3-yl)-3-methyl-1,2-thiazole-4-carboxamide], the IC50 at CDK2/CycE was more than 20 µM; in the test with HeLa, 2400 nM.

In the case of `COc1ccc(NC(=O)c2c(C)nsc2Nc2cnc3cc(C(F)(F)F)ccc3n2)cn1` [Example 45, N-(6-Methoxypyridin-3-yl)-3-methyl-5-{[6-(trifluoromethyl)quinoxalin-2-yl]amino}-1,2-thiazole-4-carboxamide], the IC50 on CDK2/CycE is more than 20 µM; with HeLa it was 340 nM.

In the case of `Cc1nsc(Nc2cnc3cc(F)ccc3n2)c1C(=O)Nc1ccc(F)c(F)c1` [Example 46, N-(3,4-Difluorophenyl)-5-[(6-fluoroquinoxalin-2-yl)amino]-3-methyl-1,2-thiazole-4-carboxamide], the values for the IC50 on CDK2/CycE and with HeLa were more than 20 µM and 130 nM, respectively.

For the compound `COc1ccc(NC(=O)c2c(C)nsc2Nc2nc3c(C(F)(F)F)cccc3s2)cc1F` [Example 47, N-(3-Fluoro-4-methoxyphenyl)-3-methyl-5-{[4-(trifluoromethyl)-1,3-benzothiazol-2-yl]amino}-1,2-thiazole-4-carboxamide], the IC50 at CDK2/CycE is more than 20 µM; in the test on HeLa, 370 nM.

Turning to `COc1ccc(NC(=O)c2c(C)nsc2Nc2nc3c(C(F)(F)F)cccc3s2)cn1` [Example 48, N-(6-Methoxypyridin-3-yl)-3-methyl-5-{[4-(trifluoromethyl)-1,3-benzothiazol-2-yl]-amino}-1,2-thiazole-4-carboxamide], the IC50 at CDK2/CycE is more than 20 µM; in the test on HeLa, 580 nM.

Turning to `Cc1nsc(Nc2ncc(C(=O)N(C)C)s2)c1C(=O)Nc1ccc(F)c(F)c1` [Example 49, N-(3,4-Difluorophenyl)-5-{[5-(dimethylcarbamoyl)-1,3-thiazol-2-yl]amino}-3-methyl-1,2-thiazole-4-carboxamide], the IC50 on CDK2/CycE is more than 20 µM; with HeLa, 4400 nM.

These data come from patent US9682995B2, “Amino-substituted isothiazoles” (BAYER PHARMA AKTIENGESELLSCHAFT, priority 2013, dated 2017).
